Counter-ions that a name gives are not always drawn.

In one assay the target is human SPR (Homo sapiens (Human), UniProt P35270). Briefly: Evaluation Example 2: Measurement of human SPR inhibitory activity (seven concentrations, sepiapterin absorbance at 420 nm). In kind it is biochemical. Conditions: Evaluation Example 2, seven concentrations 0.14 nM to 100 nM, 240 minutes at room temperature, read-out: IC50. Here is the method: Human SPR was prepared as described below. The full-length human SPR (1-261) cDNA was purchased from Eurofins Genomics as an artificially synthesized plasmid containing a DNA sequence optimized for the E. coli expression system so that the sequence of the expressed protein after transcription and translation matches the sequence described in UniprotKB (P35270).
Chain of human SPR (P35270 whole entry): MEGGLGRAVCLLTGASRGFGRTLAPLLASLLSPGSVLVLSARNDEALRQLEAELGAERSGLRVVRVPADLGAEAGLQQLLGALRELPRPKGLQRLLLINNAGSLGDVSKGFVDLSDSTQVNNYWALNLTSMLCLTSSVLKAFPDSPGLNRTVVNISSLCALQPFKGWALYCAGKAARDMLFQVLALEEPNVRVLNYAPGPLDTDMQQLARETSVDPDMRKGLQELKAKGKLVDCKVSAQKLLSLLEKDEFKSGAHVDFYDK
Linearized insert and vector were prepared by PCR using primers designed for amplification of human SPR cDNA and primers designed to contain the thrombin recognition sequence of pET28a (Novagen) and a polyhistidine tag. Cloning was performed using In-Fusion (registered trademark) HD Cloning Kit (TaKaRa) to thereby construct a human SPR expression plasmid. The resultant human SPR expression plasmid was transformed into BL21 (DE3) competent cells (INVITROGEN).
The cells were inoculated into LB medium (1% triptone, 0.5% yeast extract, 1% sodium chloride) containing […] of kanamycin, and then precultured at 37° C. overnight. The precultured cells were inoculated into TB medium (1.2% triptone, 2.4% yeast extract, 9.4% dipotassium hydrogen phosphate, 2.2% potassium dihydrogen phosphate, 0.8% glycerin) containing […] of kanamycin, and the cultured at 37° C., to thereby induce SPR expression with 0.5 mM IPTG for four hours. After the induction, the cells were collected by centrifugation at 6,000 G for 30 minutes and washed with PBS, and the washing was discarded. The washed cells were suspended in buffer solution A (20 mM MES, pH 6.5, 100 mM sodium chloride, 1 mM DTT, 5 mM imidazole). Subsequently, the cell suspension was subjected to ultrasonic treatment to thereby homogenize the cells. The cell homogenate was clarified by centrifugation at 30,000 G for 60 minutes and then filtered with a […]. The filtrate was allowed to pass through HisTrapFF 5 mL column (GE Healthcare). The resin was washed with buffer A, and then gradient elution was performed with buffer B (20 mM MES, pH 6.5, 100 mM sodium chloride, 1 mM DTT, 500 mM imidazole). Thrombin was added to a fraction containing the SPR protein, and the mixture was dialyzed in buffer A overnight, to thereby cleave the tag. After removal of the thrombin by with Benzamidine Sepharose 4 FF (GE Healthcare), the resultant product was allowed to pass through the HisTrapFF 5 mL column, to thereby remove the tag, followed by concentration with Amicon Ultra 10,000 NMWL (Merck Millipore). The concentrate was purified by gel filtration using HiLoad 16/60 Superdex 75 pg (GE Healthcare) equilibrated with buffer C (20 mM MES, pH 6.5, 100 mM sodium chloride, 1 mM DTT). The fraction containing SPR protein was concentrated and then cryopreserved at −80° C.
Human SPR inhibitory activity was measured by using a 384-well low adsorption clear plate (Greiner) with buffer D containing 100 mM Tris-HCl (pH 7.5) (Thermo Fisher Scientific) and 0.01% bovine serum albumin (Sigma). A compound was diluted with DMSO to achieve seven different final concentrations; i.e., 0.14 nM, 0.41 nM, 1.23 nM, 3.7 nM, 11.1 nM, 33 nM, and 100 nM. A 1.5 μL aliquot of the compound solution prepared with DMSO was diluted with 250 μL of buffer D, and the thus-diluted solution was dispensed into the 384-well plate at 20 μL/well. Thereafter, human SPR was diluted with buffer D to 150 ng/mL and then dispensed into the 384-well plate at 20 μL/well. Subsequently, 40 μL of ultrapure water containing 120 μM sepiapterin (produced by the method described in L-Sepiapterin, Heterocycles, 2008, 76, 1329-1335 and WO 2013/168693) and 160 μM NADPH (Nacalai) was added to each well, and then reaction was initiated. The reaction mixture was incubated at room temperature for 240 minutes. Thereafter, in order to determine the amount of sepiapterin, the absorbance at 420 nm was measured by applying the 384-well plate to EnSpire multimode plate reader (Perkin Elmer). The percent inhibition (%) of human SPR by the test compound was calculated by the following formula.
On to `CC(C)(C)Cn1c(=O)c(C(=O)NC2CC2)c(O)n2nc(-c3n[nH]c4ccncc34)cc12` [Synthesis Example 307, N-Cyclopropyl-7-hydroxy-4-neopentyl-5-oxo-2-(1H-pyrazolo[4,3-c]pyridin-3-yl 4,5-dihydropyrazolo[1,5-a]pyrimidine-6-carboxamide hydrochloride], for which the IC50 stood at 3030 pM. The same measure, in the same setting: then `CC(C)Cn1c(=O)c(C(=O)NC2CC2)c(O)n2ncc(/C=C/C(=O)NCC(C)(C)O)c12` [compound 507, (E)-N-Cyclopropyl-7-hydroxy-3-(3-((2-hydroxy-2-methylpropyl)amino)-3-oxoprop-1-en-1-yl)-4-isobutyl-5-oxo-4,5-dihydropyrazolo[1,5-a]pyrimidine-6-carboxamide], with 1130 pM; and `CC(C)Cn1c(=O)c(C(=O)NC2CC2)c(O)n2ncc(/C=C/C(=O)N3CCOC[C@H]3C(F)(F)F)c12` [compound 534, (S,E)-N-Cyclopropyl-7-hydroxy-4-isobutyl-5-oxo-3-(3-oxo-3-(3-(trifluoromethyl)morpholino)prop-1-en-1-yl)-4,5-dihydropyrazolo[1,5-a]pyrimidine-6-carboxamide], with 870 pM. Still for that read-out and setting: the value for `CC(C)(C)Cn1c(=O)c(C(=O)NC2CC2)c(O)n2nc3c(c12)CN(C1CCOCC1)C(=O)N3` [Synthesis Example 405, N-Cyclopropyl-8-hydroxy-5-neopentyl-2,6-dioxo-3-(tetrahydro-2H-pyran-4-yl)-1,2,3,4,5,6-hexahydropyrazolo[1,5-a:3,4-d′]dipyrimidine-7-carboxamide] was 770 pM. The same measure, in the same setting: then `CC(C)Cn1c(=O)c(C(=O)NC2CC2)c(O)n2nc(-c3cccnc3N)c(/C=C/C(=O)N3CCOCC3)c12` [compound 449, (E)-2-(2-Aminopyridin-3-yl)-N-cyclopropyl-7-hydroxy-4-isobutyl-3-(3-morpholino-3-oxoprop-1-en-1-yl)-5-oxo-4,5-dihydropyrazolo[1,5-a]pyrimidine-6-carboxamide], with 840 pM. As to `CC(C)Cn1c(=O)c(C(=O)NC2CC2)c(O)n2ncc(/C=C/C(=O)N3CCOCC34CCC4)c12` [compound 547, (E)-N-Cyclopropyl-7-hydroxy-4-isobutyl-5-oxo-3-(3-oxo-3-(8-oxa-5-azaspiro[3,5]nonan-5-yl)prop-1-en-1-yl)-4,5-dihydropyrazolo[1,5-a]pyrimidine-6-carboxamide], the IC50 was determined as 740 pM. On the same count and under the same terms, the value for `Cc1nn2c(O)c(C(=O)NC3CC3)c(=O)n(CC(C)C)c2c1/C=C/C(=O)N1CCOc2cnccc21` [Synthesis Example 675, (E)-N-Cyclopropyl-3-(3-(2,3-dihydro-1H-pyrido[3,4-b][1,4]oxazin-1-yl)-3-oxoprop-1-en-1-yl)-7-hydroxy-4-isobutyl-2-methyl-5-oxo-4,5-dihydropyrazolo[1,5-a]pyrimidine-6-carboxamide] was 990 pM; that for `COCCNC(=O)/C=C/c1cnn2c(O)c(C(=O)NC3CC3)c(=O)n(CC(C)C)c12` [compound 517, (E)-N-Cyclopropyl-7-hydroxy-4-isobutyl-3-(3-((2-methoxyethyl)amino)-3-oxoprop-1-en-1-yl)-5-oxo-4,5-dihydropyrazolo[1,5-a]pyrimidine-6-carboxamide] was 570 pM. `CC(C)Cn1c(=O)c(C(=O)NC2CC2)c(O)n2ncc(/C=C/C(=O)N3CC[C@@H](O)C3)c12` [compound 502, (R,E)-N-Cyclopropyl-7-hydroxy-3-(3-(3-hydroxypyrrolidin-1-yl)-3-oxoprop-1-en-1-yl)-4-isobutyl-5-oxo-4,5-dihydropyrazolo[1,5-a]pyrimidine-6-carboxamide]: the IC50 came to 700 pM. Still for that read-out and setting: then `CC(C)(F)Cn1c(=O)c(C(=O)NC2CC2)c(O)n2ncc(/C=C/C(=O)N3CCOCC3)c12` [Synthesis Example 390, (E)-N-Cyclopropyl-4-(2-fluoro-2-methylpropyl)-7-hydroxy-3-(3-morpholino-3-oxoprop-1-en-1-yl)-5-oxo-4,5-dihydropyrazolo[1,5-a]pyrimidine-6-carboxamide], with 710 pM. Same read-out and setting: the value for `CC(C)Cn1c(=O)c(C(=O)NC2CC2)c(O)n2ncc(/C=C/C3=NCC(C)(C)O3)c12` [Synthesis Example 266, (E)-N-Cyclopropyl-3-(2-(5,5-dimethyl-4,5-dihydrooxazol-2-yl)vinyl)-7-hydroxy-4-isobutyl-5-oxo-4,5-dihydropyrazolo[1,5-a]pyrimidine-6-carboxamide] was 1580 pM; that for `CC(=O)N1CCC(/C=C/c2cnn3c(O)c(C(=O)NC4CC4)c(=O)n(CC(C)C)c23)CC1` [Synthesis Example 244, (E)-3-(2-(1-Acetylpiperidin-4-yl)vinyl)-N-cyclopropyl-7-hydroxy-4-isobutyl-5-oxo-4,5-dihydropyrazolo[1,5-a]pyrimidine-6-carboxamide] was 990 pM.

`CC[C@@H]1CCCN1C(=O)/C=C/c1c(C)nn2c(O)c(C(=O)NC3CC3)c(=O)n(CC(C)C)c12` [compound 610, (R,E)-N-Cyclopropyl-3-(3-(2-ethylpyrrolidin-1-yl)-3-oxoprop-1-en-1-yl)-7-hydroxy-4-isobutyl-2-methyl-5-oxo-4,5-dihydropyrazolo[1,5-a]pyrimidine-6-carboxamide]: the IC50 came to 1640 pM.

Consider `COC(C)(C)Cn1c(=O)c(C(=O)NC2CC2)c(O)n2nc(C(N)=O)cc12` [Synthesis Example 275, N6-Cyclopropyl-7-hydroxy-4-(2-methoxy-2-methylpropyl)-5-oxo-4,5-dihydropyrazolo[1,5-a]pyrimidine-2,6-dicarboxamide], for which the IC50 amounted to 680 pM. Still for that read-out and setting: the value for `CC(C)Cn1c(=O)c(C(=O)NC2CC2)c(O)n2ncc(C(=O)NCC3CC(F)(F)C3)c12` [Synthesis Example 222, N6-Cyclopropyl-N3-((3,3-difluorocyclobutyl)methyl)-7-hydroxy-4-isobutyl-5-oxo-4,5-dihydropyrazolo[1,5-a]pyrimidine-3,6-dicarboxamide] was 790 pM; that for `CC(C)Cn1c(=O)c(C(=O)NC2CC2)c(O)n2ncc(C(=O)NCC3CCOCC3)c12` [Synthesis Example 221, N6-Cyclopropyl-7-hydroxy-4-isobutyl-5-oxo-N3-((tetrahydro-2H-pyran-4-yl)methyl)-4,5-dihydropyrazolo[1,5-a]pyrimidine-3,6-dicarboxamide] was 640 pM.

On to `Cc1nn2c(O)c(C(=O)NC3CC3)c(=O)n(CC(C)C)c2c1/C=C/C(=O)N1CCN(C)CC1` [compound 574, (E)-N-Cyclopropyl-7-hydroxy-4-isobutyl-2-methyl-3-(3-(4-methylpiperazin-1-yl)-3-oxoprop-1-en-1-yl)-5-oxo-4,5-dihydropyrazolo[1,5-a]pyrimidine-6-carboxamide], for which the IC50 is 790 pM.

The assay is the same for the next values; noted with them: sepiapterin absorbance, Table 41, read-out: concentration at 50% inhibition of human SPR (IC50).
Take `CC(C)Cn1c(=O)c(C(=O)NC2CC2)c(O)n2ncc(/C=C/C(=O)N3CCCC34CCN(C(=O)OC(C)(C)C)CC4)c12` [Synthesis Example 733, Tert-butyl (E)-1-(3-(6-(cyclopropylcarbamoyl)-7-hydroxy-4-isobutyl-5-oxo-4,5-dihydropyrazolo[1,5-a]pyrimidin-3-yl)acryloyl)-1,8-diazaspiro[4.5]decane-8-carboxylate]: the IC50 is 2160 pM. On the same count and under the same terms, the value for `CC(C)Cn1c(=O)c(C(=O)NC2CC2)c(O)n2ncc(/C=C/C(=O)N3CCc4ccccc43)c12` [Synthesis Example 725, (E)-N-Cyclopropyl-7-hydroxy-3-(3-(indolin-1-yl)-3-oxoprop-1-en-1-yl)-4-isobutyl-5-oxo-4,5-dihydropyrazolo[1,5-a]pyrimidine-6-carboxamide] was 3610 pM.
